Results: patent EP0170168A2, “N,N,-diethyl, N'-aryl, N'-(dichlorfluormethylthio)sulfamide-microbiocides” (BAYER AG, priority 1984, dated 1986)

What was measured:
Coriolus versicolor = experiment: Toxic limit values on impregnated wood discs (method after Sutter), beech wood; assay type: cell-based; details: Coriolus versicolor (Buche)
From the text: (§1) Bestimmung der toxischen Grenzwerte (kg/m^3 Holz) der Wirkstoffe gemäß Beispiel 1 und 2 für Coniophora puteana bzw. Coriolus versicolor auf Kiefern- bzw. Buchenholz. Die Bestimmung der toxischen Grenzwerte erfolgt in Anlehnung an die von H.P. Sutter, Int. Biodeterioration Bulletin 14 (3), 1978, Seiten 95 bis 99, beschriebenen Methode.
(§2) Für die Tests werden jeweils frisch geschnittene dünne Stirnholzscheibchen (Größe 40 x 40 mm, Dicke etwa 2 mm) im Vakuum mit Lösungen unterschiedlich definierter Wirkstoffkonzentration getränkt. Die Menge des absorbierten Wirkstoffs in kg/m^3 Holz wird aus der Retention der Lösung (durch Einzelwägung der Holzproben vor und nach der Imprägnierung bestimmt), der Holzdichte und der Konzentration des Wirkstoffs in der verwendeten Imprägnierlösung errechnet.
(§3) Je 5 der 15 getrockneten Prüflinge einer Wirkstoffkonzentration werden dem Pilzangriff ohne Belastung ausgesetzt, 5 weitere Proben werden vorher im Windkanal (Windgeschwindigkeit: 1 + 0,1 m/sec; Temp.: 40 + 2°C) 4 Wochen lang belastet, 5 andere Prüflinge werden einer Wässerung in Anlehnung an DIN EN 84 unterzogen (14 Tage Lagerung in dest. Wasser bei 20°C, 9-maliger Wasserwechsel).
(§4) Für den mykologischen Test werden die Prüflinge nach Sterilisieren mit Propylenoxid einzeln auf das voll entwickelte Pilzmycel des Prüfpilzes auf Malzextraktagar in Petrischalen aufgelegt, durch Distanzhalter beträgt der Abstand zwischen Agaroberfläche und Probe ca. 5 mm. Nach 6wöchiger Lagerung bei 21-23°C wird der Zerstörungsgrad der Prüfling visuell beurteilt.
(§5) Als Grenzwerte der toxischen Wirkung werden die beiden Konzentrationen des Wirkstoffs in kg/m^3 Holz ermittelt, bei denen das Holz gerade noch und nicht mehr angegriffen wird.
(§6) In der folgenden Tabelle sind die Mittelwerte der Toxizitätsgrenzwerte für die erfindungsgemäßen Substanzen gemäß Beispiel 1 und 2 sowie für den bekannten Wirkstoff Dichlorfluonid für zwei Prüfpilze und zwei verschiedene Holzarten angegeben.
(§7) Mittlere Toxizitätsgrenzen (kg/m^3 Holz) von Wirkstoffen gemäß Beispiel 1 und 2 für holzzerstörende Pilze.

Coniophora puteana = experiment: Toxic limit values on impregnated wood discs (method after Sutter), pine wood; assay type: cell-based; details: Coniophora puteana (Kiefer)
From the text: as §1, §2, §3, §4, §5, §6, §7

[1] = Solubility in organic solvents for wood preservatives; assay type: physicochemical; details: for Löslichkeit (%) in Shellsol AB: solvent Shellsol AB; for Löslichkeit (%) in Testbenzin: solvent Testbenzin
From the text: Löslichkeiten erfindungsgemäßer Wirkstoffe nach Beispiel 1 und 2 im Vergleich zum handelsüblichen Dichlofluanid in organischen Lösungsmitteln für Holzschutzmittel
(Testbenzin und Shellsol AB sind handelsübliche niedrigsiedende Kohlenwasserstoffe).

[2] = nach Belüftung (wind tunnel 4 weeks, 40°C)
[3] = nach Wässerung (14 days in distilled water, 20°C)
[4] = ohne Belastung, 6 weeks at 21-23°C

Structure (SMILES) | Mittlere Toxizitätsgrenzen (Coriolus versicolor; [2]) | Mittlere Toxizitätsgrenzen (Coriolus versicolor; [3]) | Mittlere Toxizitätsgrenzen (Coriolus versicolor; [4]) | Mittlere Toxizitätsgrenzen (Coniophora puteana; [2]) | Mittlere Toxizitätsgrenzen (Coniophora puteana; [3]) | Mittlere Toxizitätsgrenzen (Coniophora puteana; [4]) | Löslichkeit (%) in Shellsol AB [1] | Löslichkeit (%) in Testbenzin [1]
CCN(CC)S(=O)(=O)N(SC(F)(Cl)Cl)c1ccccc1 [Beispiel 1, N,N-Diethyl-N'-phenyl-N'-(dichlorfluormethylthio)-sulfamid] | 2,7 kg/m^3 Holz | 1,1 kg/m^3 Holz | 0,6 kg/m^3 Holz | 2,0 kg/m^3 Holz | 0,8 kg/m^3 Holz | 0,4 kg/m^3 Holz | 71% | 16%
CCN(CC)S(=O)(=O)N(SC(F)(Cl)Cl)c1ccc(C)cc1 [Beispiel 2, N,N-Diethyl-N'-(p-tolyl)-N'-(dichlorfluormethylthio)-sulfamid] |  |  | 1,5 kg/m^3 Holz |  |  | 0,7 kg/m^3 Holz | 67% | 59%
CN(C)S(=O)(=O)N(SC(F)(Cl)Cl)c1ccccc1 [Dichlofluanid, N,N-Dimethyl-N'-phenyl-N'-(fluordichlormethylthio)-sulfamid, reference compound] | 3,5 kg/m^3 Holz | 3,2 kg/m^3 Holz | 2,5 kg/m^3 Holz | 3,7 kg/m^3 Holz | 2,4 kg/m^3 Holz | 1,9 kg/m^3 Holz | 6% | 1,2%
